Results: US20090312521A1 (priority 2004, published 2009)
Values after ≈ are worked out from the molar mass of the structure shown. Non-standard residues stand in square brackets, D forms with d. Residues, ends and D or L forms follow the SMILES beside them. βAla = NCCC(=O)O

How the values were obtained:
Serratia marcescens = test: Additional antimicrobial test (MIC); format: cell-based; settings: Gram −, NB, 22 ° C.
[1] = system: Erwinia carotovora atroseptica; test: Additional antimicrobial test (MIC); format: cell-based; settings: Gram −, NB/BHI, 28/37 ° C.

Row | SMILES | MIC (Serratia marcescens) | MIC (Erwinia chrysanthemi) [µM] | MIC (Enterobacter aerogenes) [µM] | MIC [1] | MIC (Erwinia herbicola) [µM]
1 | CC[C@H](C)[C@H](NC(=O)[C@@H]1CCCN1C(=O)[C@H](CCCNC(=N)N)NC(=O)[C@@H]1CCCN1C(=O)[C@H](Cc1c[nH]cn1)NC(=O)[C@H](CO)NC(=O)[C@@H](NC(=O)[C@@H]1CCCN1C(=O)[C@H](CCCNC(=N)N)NC(=O)[C@@H]1CCCN1C(=O)[C@@H](NC(=O)[C@H](Cc1ccc(O)cc1)NC(=O)[C@@H]1CCCN1C(=O)[C@H](CCCNC(=N)N)NC(=O)[C@@H]1CCCN1C(=O)[C@H](CCCCN)NC(=O)CN)[C@@H](C)O)[C@@H](C)O)C(=O)N[C@@H](CCCNC(=N)N)C(=O)N[C@H](C(=O)O)C(C)C [Peptide 4, GKPRP YTPRP TSHPR PIRV] (H-GKPRPYTPRPTSHPRPIRV-OH; N-terminus assumed) | NI at ≦100 μM | 50 (≈ 111 µg/mL) | 100 (≈ 221 µg/mL) | NI at ≦100 μM | 6.75 (≈ 14.9 µg/mL)
2 | CC[C@H](C)[C@H](NC(=O)[C@@H]1CCCN1C(=O)[C@H](CCCNC(=N)N)NC(=O)[C@@H]1CCCN1C(=O)[C@H](Cc1c[nH]cn1)NC(=O)[C@H](CO)NC(=O)[C@@H](NC(=O)[C@@H]1CCCN1C(=O)[C@H](CCCNC(=N)N)NC(=O)[C@@H]1CCCN1C(=O)[C@@H](NC(=O)[C@H](Cc1ccc(O)cc1)NC(=O)[C@@H]1CCCN1C(=O)[C@H](CCCNC(=N)N)NC(=O)[C@@H]1CCCN1C(=O)[C@H](CCCCN)NC(=O)CCN)[C@@H](C)O)[C@@H](C)O)C(=O)N[C@@H](CCCNC(=N)N)C(=O)N[C@H](C(=O)O)C(C)C [Peptide 14, βAlaKPRP YTPRP TSHPR PIRV] (H-[βAla]KPRPYTPRPTSHPRPIRV-OH; N-terminus assumed) | NI at ≦100 μM | 100 (≈ 223 µg/mL) | 100 (≈ 223 µg/mL) | NI at ≦100 μM | 6.75 (≈ 15 µg/mL)
